This note sets out measurements from publication PMC7497086, “Fluorophore‐Labeled Cyclic Nucleotides as Potent Agonists of Cyclic Nucleotide‐Regulated Ion Channels” (Chembiochem, 2020).

What all share (type): biochemical
Assay [1] deals with T1, Heterotetrameric CNGA2:A4:B1b channels (Rattus norvegicus, UniProt A0A8I5ZN27+Q00195+Q64359).
T1 construct: expressed in transfected cells; host or cells: Xenopus laevis oocytes injected with cRNA (CNGA2:CNGA4:CNGB1b at 2:1:1)
As to the kind of experiment: Patch-clamp activation of heterotetrameric olfactory CNGA2:A4:B1b channels, inside-out patches of Xenopus oocytes. Conditions: for H a (Hill coefficient of activation) / EC50: inside-out patches, +10 mV; for EC50: concentration of half maximum activation. The protocol:
First, the effect of the compounds on olfactory CNG channels with natural composition was tested. […] To determine the potency of the ligands, full concentration‐activation relationships were generated. These relationships were fitted with Equation 1 (Experimental Section), yielding the concentration of half maximum activation (EC 50) and the Hill coefficient (H a).
(§1) Molecular biology and heterologous expression of CNG and HCN channels: The subunits CNGA2 (accession No. AF126808), CNGA4 (accession no. U12623) and CNGB1b (accession no. AF068572) of rat olfactory channels as well as mouse HCN2 channels (NM008226) were subcloned in front of the T7 promoter of pGEMHEnew. The corresponding cRNAs were produced with the mMESSAGE mMACHINE T7 Kit (Ambion, Austin, TX, USA).
(§2) Oocytes at stages IV and V were injected with 50–130 ng cRNA encoding either CNGA2, CNGA2 : CNGA4 : CNGB1b (2 : 1 : 1 ratio) or HCN2 channels either manually or mediated by an injection robot (RoboInject®). The injected oocytes were incubated at 18 °C for up to 6 days in Barth's medium containing (in mM) 84 NaCl, 1 KCl, 2.4 NaHCO3, 0.82 MgSO4, 0.41 CaCl2, 0.33 Ca(NO3)2, 7.5 TRIS, cefuroxime (4.0 μg/mL) and penicillin/streptomycin (100 μg/mL), pH 7.4.
(§3) Electrophysiology: Macroscopic currents were recorded in inside‐out patches of the oocytes expressing hundreds to several thousand of the desired channels by using the patch‐clamp technique. The patch pipettes were pulled from quartz tubing (P‐2000, Sutter Instrument, Novato, USA) with an outer and inner diameter of 1.0 and 0.7 mm (VITROCOM, New Jersey, USA). The corresponding pipette resistance was 0.9–2.3 MΩ. The bath and pipette solution contained (in mM): 150 KCl, 1 EGTA, 20 HEPES (pH 7.4) for CNG channel measurements. For HCN channel measurements the bath solution contained (in mM): 100 KCl, 10 EGTA, 10 HEPES (pH 7.2) and the pipette (in mM) 120 KCl, 10 HEPES, 1 CaCl2 (pH 7.2). All experiments were performed at room temperature by using an Axopatch 200B amplifier (Axon Instruments, Foster City, CA, USA). Electrophysiology was controlled by the Patchmaster‐software (HEKA Elektronik Dr. Schulze GmbH, Lambrecht, Germany). The sampling rate was 5 kHz and the filter implemented in the amplifier (4‐pole Bessel) was set to 2 kHz. Measurements in HCN2 channels were started 3.5 minutes after patch excision, to minimize run down phenomena.18 The solutions with the different ligand concentrations to be studied were applied by a multi‐barrel device to the patches with a flow rate of 0.8 to 1.2 mL/min. The concentration of the fluorescent ligands was verified by UV/Vis spectroscopy.
(§4) where I is the actual current amplitude and I max the maximum current amplitude at saturating concentration of each cyclic nucleotide. EC 50 is the ligand concentration generating half maximum current and H a the respective Hill coefficient.

Assay [2] has as its target T2, Homotetrameric CNGA2 channels (Rattus norvegicus, UniProt Q00195).
T2 construct: expressed in transfected cells; host or cells: Xenopus laevis oocytes injected with CNGA2 cRNA
T2 sequence (Q00195 1-664): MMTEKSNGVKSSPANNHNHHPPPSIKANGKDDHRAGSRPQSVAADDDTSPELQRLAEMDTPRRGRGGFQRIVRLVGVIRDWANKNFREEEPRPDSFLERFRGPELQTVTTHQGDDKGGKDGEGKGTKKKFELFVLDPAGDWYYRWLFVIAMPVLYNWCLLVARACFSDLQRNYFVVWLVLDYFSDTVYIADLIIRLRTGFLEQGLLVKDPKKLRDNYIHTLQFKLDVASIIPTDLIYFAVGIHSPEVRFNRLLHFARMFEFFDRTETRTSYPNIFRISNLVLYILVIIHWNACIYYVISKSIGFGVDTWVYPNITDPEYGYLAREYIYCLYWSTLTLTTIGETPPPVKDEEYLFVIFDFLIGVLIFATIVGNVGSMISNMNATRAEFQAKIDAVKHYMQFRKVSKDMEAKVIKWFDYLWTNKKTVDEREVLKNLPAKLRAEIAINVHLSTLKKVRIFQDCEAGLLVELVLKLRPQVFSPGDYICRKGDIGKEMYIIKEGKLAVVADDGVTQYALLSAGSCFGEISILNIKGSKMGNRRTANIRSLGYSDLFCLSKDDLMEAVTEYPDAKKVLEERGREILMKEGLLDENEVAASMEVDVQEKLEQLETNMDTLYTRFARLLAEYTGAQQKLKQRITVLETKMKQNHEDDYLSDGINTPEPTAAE
As to the kind of experiment: Patch-clamp activation of homotetrameric CNGA2 channels, inside-out patches of Xenopus oocytes. Conditions: for H a (Hill coefficient of activation) / EC50: inside-out patches; for EC50: concentration of half maximum activation.
Source text: Moreover, we studied the effect of the nucleotide derivatives on homotetrameric CNGA2 channels.
as §1, §2, §3, §4

The target of assay [3] is T3, homotetrameric HCN2 channels (Mus musculus, UniProt O88703).
T3 construct: expressed in transfected cells; host or cells: Xenopus laevis oocytes injected with HCN2 cRNA
T3 sequence (O88703 1-863): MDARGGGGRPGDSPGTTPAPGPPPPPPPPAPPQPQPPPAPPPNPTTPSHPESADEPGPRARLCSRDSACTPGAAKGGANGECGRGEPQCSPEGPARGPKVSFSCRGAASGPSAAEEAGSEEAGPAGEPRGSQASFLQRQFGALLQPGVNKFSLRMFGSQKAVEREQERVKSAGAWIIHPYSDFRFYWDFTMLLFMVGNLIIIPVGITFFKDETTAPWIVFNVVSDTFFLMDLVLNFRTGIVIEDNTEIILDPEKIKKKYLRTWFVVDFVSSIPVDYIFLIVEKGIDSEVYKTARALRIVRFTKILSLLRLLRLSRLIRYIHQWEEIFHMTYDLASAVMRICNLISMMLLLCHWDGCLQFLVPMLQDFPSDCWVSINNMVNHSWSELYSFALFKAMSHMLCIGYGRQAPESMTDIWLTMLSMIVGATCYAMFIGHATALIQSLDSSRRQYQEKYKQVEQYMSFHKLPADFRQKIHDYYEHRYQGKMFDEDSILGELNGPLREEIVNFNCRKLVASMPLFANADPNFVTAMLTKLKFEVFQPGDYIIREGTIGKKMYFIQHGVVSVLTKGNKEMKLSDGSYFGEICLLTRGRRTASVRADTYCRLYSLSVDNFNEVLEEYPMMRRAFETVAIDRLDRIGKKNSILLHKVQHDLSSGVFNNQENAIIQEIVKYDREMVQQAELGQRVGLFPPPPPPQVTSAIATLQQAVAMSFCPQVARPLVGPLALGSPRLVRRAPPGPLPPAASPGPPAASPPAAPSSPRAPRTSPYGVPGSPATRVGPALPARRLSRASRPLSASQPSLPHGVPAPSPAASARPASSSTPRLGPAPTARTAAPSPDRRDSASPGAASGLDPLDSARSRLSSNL
As to the kind of experiment: Patch-clamp activation of homotetrameric HCN2 channels, inside-out patches of Xenopus oocytes. Conditions: 5 μM ligand; pulse from -30 mV to -130 mV; compared with saturating cAMP (20 μM). The protocol: On these channels the potency of cGMP and its derivatives is negligibly small. These measurements were performed in inside‐out patches as well. The channels were activated from a holding potential of −30 mV by a hyperpolarizing voltage pulse to −130 mV, followed by a short pulse to −100 mV, as described in the inset of Figure 3A. All recordings were carried out in the absence of a ligand at first and then with a solution containing 5 μM of the cyclic nucleotide to be tested.
as §1
The oocytes were incubated for 105 min in Ca^2+‐free Barth's solution containing collagenase A (3 mg/mL; Roche, Grenzach‐Wyhlen, Germany) and (in mM) 82.5 NaCl, 2 KCl, 1 MgCl2, 5 HEPES, pH 7.4. […]
Electrophysiology: Macroscopic currents were recorded in inside‐out patches of the oocytes expressing hundreds to several thousand of the desired channels by using the patch‐clamp technique. […]

Values joined by “and” are separate entries in the source; they are usually repeats but may differ in a detail not shown here. Equal entries are not always repeated. “Also recorded” adds a separate entry of the source.

T1 sequence (Q64359 whole entry, one chain of several): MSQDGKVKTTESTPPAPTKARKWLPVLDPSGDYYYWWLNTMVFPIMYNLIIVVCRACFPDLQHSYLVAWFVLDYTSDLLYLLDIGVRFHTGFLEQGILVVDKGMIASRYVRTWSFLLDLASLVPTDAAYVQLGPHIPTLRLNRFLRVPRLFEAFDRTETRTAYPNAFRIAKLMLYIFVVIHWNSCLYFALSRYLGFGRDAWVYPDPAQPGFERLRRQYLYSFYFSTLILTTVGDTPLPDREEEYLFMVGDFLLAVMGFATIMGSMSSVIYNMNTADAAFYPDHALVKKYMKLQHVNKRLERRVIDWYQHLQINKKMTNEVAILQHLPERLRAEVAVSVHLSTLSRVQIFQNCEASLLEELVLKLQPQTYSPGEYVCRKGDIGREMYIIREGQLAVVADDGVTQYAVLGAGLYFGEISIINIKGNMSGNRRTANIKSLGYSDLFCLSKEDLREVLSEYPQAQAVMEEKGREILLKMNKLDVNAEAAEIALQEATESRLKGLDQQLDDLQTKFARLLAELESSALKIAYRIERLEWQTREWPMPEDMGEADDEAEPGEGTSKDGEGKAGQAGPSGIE
T1 sequence (A0A8I5ZN27 1-858 isoform A0A8I5ZN27-2, one chain of several): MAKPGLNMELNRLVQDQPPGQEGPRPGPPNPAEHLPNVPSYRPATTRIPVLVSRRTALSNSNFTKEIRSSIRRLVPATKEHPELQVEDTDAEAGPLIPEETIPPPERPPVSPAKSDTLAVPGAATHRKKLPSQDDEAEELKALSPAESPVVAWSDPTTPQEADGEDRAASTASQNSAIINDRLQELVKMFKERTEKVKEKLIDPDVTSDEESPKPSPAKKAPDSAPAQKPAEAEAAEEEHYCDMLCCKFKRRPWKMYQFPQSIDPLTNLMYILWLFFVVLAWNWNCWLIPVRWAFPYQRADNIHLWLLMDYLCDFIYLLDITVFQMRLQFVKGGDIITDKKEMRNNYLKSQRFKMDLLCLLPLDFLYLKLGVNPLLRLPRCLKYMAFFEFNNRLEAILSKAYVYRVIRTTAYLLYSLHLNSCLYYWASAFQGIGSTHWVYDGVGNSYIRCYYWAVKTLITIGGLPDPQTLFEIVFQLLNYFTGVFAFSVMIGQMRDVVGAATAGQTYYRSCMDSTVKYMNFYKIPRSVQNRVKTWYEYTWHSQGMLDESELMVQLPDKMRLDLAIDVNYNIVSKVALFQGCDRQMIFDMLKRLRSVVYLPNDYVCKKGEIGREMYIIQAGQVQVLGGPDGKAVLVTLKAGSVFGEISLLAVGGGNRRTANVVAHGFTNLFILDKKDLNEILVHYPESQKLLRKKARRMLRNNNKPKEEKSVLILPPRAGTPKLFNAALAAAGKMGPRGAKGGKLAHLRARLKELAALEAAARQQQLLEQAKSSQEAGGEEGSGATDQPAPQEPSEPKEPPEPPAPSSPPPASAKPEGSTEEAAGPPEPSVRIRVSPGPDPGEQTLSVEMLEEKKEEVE

With `NCCCCCc1ccc(Sc2nc3c(N)ncnc3n2[C@@H]2O[C@@H]3COP(=O)(O)O[C@H]3[C@H]2O)cc1` [Compound 6], the “effect at elevated concentrations” value in assay [1] (elevated concentrations) is given as “inhibitory effect”. In assay [1], the “H a (Hill coefficient of activation)” value came out at 2.25±0.08 and a half-maximal effect (EC50) was put at 0.75 ± 0.01 µM. Besides, in assay [2], the “H a (Hill coefficient of activation)” value is reported as 2.51±0.05 and the EC50 came out at 4.72 ± 0.04 µM. The “effect on HCN2 current (activation speed and current amplitude)” value in assay [3] was “accelerated the current and enhanced the amplitude”.
As to `CC1(C)C2=C3C=C4C5=[N+](CCC4OC3CCN2c2ccc(CC(=O)NCCCCCc3ccc(Sc4nc6c(N)ncnc6n4[C@@H]4O[C@@H]6COP(=O)(O)O[C@H]6[C@H]4O)cc3)cc21)c1ccc(S(=O)(=O)[O-])cc1C5(C)C` (stereo partly shown) [Compound 7], in assay [1], the “H a (Hill coefficient of activation)” value was found to be 2.26±0.29 and it took 0.9 ± 0.04 µM to reach a half-maximal effect (EC50). Moreover, in assay [2], the “H a (Hill coefficient of activation)” value is 1.39 and 1.39±0.07; the EC50 was 10 ± 0.5 µM. Besides, the “efficacy of channel activation” value in assay [2] (relative to maximum activation) is on record as “did not generate maximum activation at 100 μM”.
Turning to `NCCCCCc1ccc(Sc2nc3c(=O)[nH]c(N)nc3n2[C@@H]2O[C@@H]3COP(=O)(O)O[C@H]3[C@H]2O)cc1` [Compound 9], in assay [1], the “H a (Hill coefficient of activation)” value came to 1.55±0.08 and the EC50 stood at 0.37 ± 0.01 µM. Moreover, in assay [2], the “EC 50 (in words)” value is “nanomolar range”, the “H a (Hill coefficient of activation)” value worked out at 2.52±0.08 and the EC50 was determined as 0.25 ± 0.01 µM.
For the compound `NCCCCCc1ccc(-c2nc3c(N)ncnc3n2[C@@H]2O[C@@H]3COP(=O)(O)O[C@H]3[C@H]2O)cc1` [Compound 12], the agonist efficacy result in assay [1] (current maxima normalized to saturating cAMP (500 μM)) is recorded as “only a partial agonist”. The “H a (Hill coefficient of activation)” value in assay [1] stood at 2.23±0.05; in assay [2], 2.14±0.10. The EC50 in assay [1] came to 10.7 ± 0.1 µM; in assay [2], 16.3 ± 0.5 µM. In addition, in assay [3], the “effect on HCN2 current (activation speed and current amplitude)” value was “no effect; also recorded: almost ineffective”.
With `NCCCCCc1ccc(-c2nc3c(=O)[nH]c(N)nc3n2[C@@H]2O[C@@H]3COP(=O)(O)O[C@H]3[C@H]2O)cc1` [Compound 13], in assay [1], the “H a (Hill coefficient of activation)” value was 1.74±0.11 and the EC50 is 7.02 ± 0.26 µM. For the same compound, in assay [2], the “H a (Hill coefficient of activation)” value came to 2.28±0.28 and a half-maximal response (EC50) required 2.41 ± 0.15 µM.
As for `Nc1ncnc2c1ncn2[C@@H]1O[C@@H]2COP(=O)(O)O[C@H]2[C@H]1O` [cAMP, reference compound], the “H a (Hill coefficient of activation)” value in assay [1] came out at 2.08±0.12.
Regarding `Nc1nc2c(ncn2[C@@H]2O[C@@H]3COP(=O)(O)O[C@H]3[C@H]2O)c(=O)[nH]1` [cGMP, reference compound], the “H a (Hill coefficient of activation)” value in assay [1] was found to be 2.11±0.23; in assay [2] it was 2.48±0.05. Further, the EC50 was 1.36 ± 0.07 µM in assay [1] and 1.77 ± 0.02 µM in assay [2].
